Source: patent publication US12065442B2, “Tropomyosin receptor kinase (TRK) degradation compounds and methods of use” (Cullgen (Shanghai), Inc., priority 2018, dated 2024)

The compounds below were run on KM12 cells (assay: Cell viability assay (CellTiter-Glo) in KM12 cells). Details: Homo sapiens, 72 h; Table 2; KM12 cell viability, CellTiter-Glo, 3 days; read-out: IC50.
Format: cell-based
`Cc1ncsc1-c1ccc(CNC(=O)[C@@H]2C[C@@H](O)CN2C(=O)[C@@H](NC(=O)CCOCCOCCC(=O)N2CCN(c3cccc(-c4cnc5ccc(N6CCC[C@@H]6c6cccc(F)c6)nn45)n3)CC2)C(C)(C)C)cc1` [CPD-020, (2S,4R)-1-((S)-2-(3-(2-(3-(4-(6-(6-((R)-2-(3-Fluorophenyl)pyrrolidin-1-yl)imidazo[1,2-b]pyridazin-3-yl)pyridin-2-yl)piperazin-1-yl)-3-oxopropoxy)ethoxy)propanamido)-3,3-dimethylbutanoyl)-4-hydroxy-N-(4-(4-methylthiazol-5-yl)benzyl)pyrrolidine-2-carboxamide] gave an IC50 of 200 nM. `O=C1CCC(N2C(=O)c3cccc(NCCOCCOCCOCCOCCC(=O)N4CCN(c5cccc(-c6cnc7ccc(N8CCC[C@@H]8c8cccc(F)c8)nn67)n5)CC4)c3C2=O)C(=O)N1` (stereo partly drawn) [CPD-021, 2-(2,6-Dioxopiperidin-3-yl)-4-((15-(4-(6-(6-((R)-2-(3-fluorophenyl)pyrrolidin-1-yl)imidazo[1,2-b]pyridazin-3-yl)pyridin-2-yl)piperazin-1-yl)-15-oxo-3,6,9,12-tetraoxapentadecyl)amino)isoindoline-1,3-dione] showed an IC50 of 27.4 nM. `Cc1ncsc1-c1ccc(CNC(=O)[C@@H]2C[C@@H](O)CN2C(=O)[C@@H](NC(=O)CCCCCCCCCC(=O)N2CCN(c3cccc(-c4cnc5ccc(N6CCC[C@@H]6c6cccc(F)c6)nn45)n3)CC2)C(C)(C)C)cc1` [CPD-022, (2S,4R)-1-((S)-2-(11-(4-(6-(6-((R)-2-(3-Fluorophenyl)pyrrolidin-1-yl)imidazo[1,2-b]pyridazin-3-yl)pyridin-2-yl)piperazin-1-yl)-11-oxoundecanamido)-3,3-dimethylbutanoyl)-4-hydroxy-N-(4-(4-methylthiazol-5-yl)benzyl)pyrrolidine-2-carboxamide] showed an IC50 of 100 nM. Compound `O=C1CCC(N2C(=O)c3cccc(NCC(=O)N4CCN(c5cccc(-c6cnc7ccc(N8CCC[C@@H]8c8cccc(F)c8)nn67)n5)CC4)c3C2=O)C(=O)N1` (stereo partly drawn) [CPD-023, 2-(2,6-Dioxopiperidin-3-yl)-4-((2-(4-(6-(6-((R)-2-(3-fluorophenyl)pyrrolidin-1-yl)imidazo[1,2-b]pyridazin-3-yl)pyridin-2-yl)piperazin-1-yl)-2-oxoethyl)amino)isoindoline-1,3-dione] has an IC50 of 14.9 nM. Compound `O=C1CCC(N2C(=O)c3cccc(NCCCCCCCC(=O)N4CCN(c5cccc(-c6cnc7ccc(N8CCC[C@@H]8c8cccc(F)c8)nn67)n5)CC4)c3C2=O)C(=O)N1` (stereo partly drawn) [CPD-024, 2-(2,6-Dioxopiperidin-3-yl)-4-((8-(4-(6-(6-((R)-2-(3-fluorophenyl)pyrrolidin-1-yl)imidazo[1,2-b]pyridazin-3-yl)pyridin-2-yl)piperazin-1-yl)-8-oxooctyl)amino)isoindoline-1,3-dione] has an IC50 of 10 nM. `O=C1CCC(N2C(=O)c3cccc(NCCOCCOCCOCCOCCOCCC(=O)N4CCN(c5cccc(-c6cnc7ccc(N8CCC[C@@H]8c8cccc(F)c8)nn67)n5)CC4)c3C2=O)C(=O)N1` (stereo partly drawn) [CPD-025, 2-(2,6-Dioxopiperidin-3-yl)-4-((18-(4-(6-(6-((R)-2-(3-fluorophenyl)pyrrolidin-1-yl)imidazo[1,2-b]pyridazin-3-yl)pyridin-2-yl)piperazin-1-yl)-18-oxo-3,6,9,12,15-pentaoxaoctadecyl)amino)isoindoline-1,3-dione] showed an IC50 of 16.7 nM. `O=C1CCC(N2C(=O)c3cccc(NCCC(=O)N4CCN(c5cccc(-c6cnc7ccc(N8CCC[C@@H]8c8cccc(F)c8)nn67)n5)CC4)c3C2=O)C(=O)N1` (stereo partly drawn) [CPD-026, 2-(2,6-Dioxopiperidin-3-yl)-4-((3-(4-(6-(6-((R)-2-(3-fluorophenyl)pyrrolidin-1-yl)imidazo[1,2-b]pyridazin-3-yl)pyridin-2-yl)piperazin-1-yl)-3-oxopropyl)amino)isoindoline-1,3-dione] showed an IC50 of 82.3 nM. Work on `O=C1CCC(N2C(=O)c3cccc(NCCOCCOCCC(=O)N4CCN(c5cccc(-c6cnc7ccc(N8CCC[C@@H]8c8cccc(F)c8)nn67)n5)CC4)c3C2=O)C(=O)N1` (stereo partly drawn) [CPD-028, 2-(2,6-Dioxopiperidin-3-yl)-4-((2-(2-(3-(4-(6-(6-((R)-2-(3-fluorophenyl)pyrrolidin-1-yl)imidazo[1,2-b]pyridazin-3-yl)pyridin-2-yl)piperazin-1-yl)-3-oxopropoxy)ethoxy)ethyl)amino)isoindoline-1,3-dione] yielded an IC50 of 4.3 nM. Work on `Cc1ncsc1-c1ccc(CNC(=O)[C@@H]2C[C@@H](O)CN2C(=O)[C@@H](NC(=O)CCCCCCC(=O)N2CCN(c3cccc(-c4cnc5ccc(N6CCC[C@@H]6c6cccc(F)c6)nn45)n3)CC2)C(C)(C)C)cc1` [CPD-029, (2S,4R)-1-((S)-2-(8-(4-(6-(6-((R)-2-(3-Fluorophenyl)pyrrolidin-1-yl)imidazo[1,2-b]pyridazin-3-yl)pyridin-2-yl)piperazin-1-yl)-8-oxooctanamido)-3,3-dimethylbutanoyl)-4-hydroxy-N-(4-(4-methylthiazol-5-yl)benzyl)pyrrolidine-2-carboxamide] yielded an IC50 of 74 nM. `O=C1CCC(N2C(=O)c3cccc(NCCOCCC(=O)N4CCN(c5ccc(C(=O)Nc6n[nH]c7ccc(Cc8cc(F)cc(F)c8)cc67)c(NC6CCOCC6)c5)CC4)c3C2=O)C(=O)N1` (centres unmarked) [CPD-030, N-(5-(3,5-Difluorobenzyl)-1H-indazol-3-yl)-4-(4-(3-(2-((2-(2,6-dioxopiperidin-3-yl)-1,3-dioxoisoindolin-4-yl)amino)ethoxy)propanoyl)piperazin-1-yl)-2-((tetrahydro-2H-pyran-4-yl)amino)benzamide] showed an IC50 of 20.5 nM. `O=C1CCC(N2C(=O)c3cccc(NCCOCCOCCOCCOCCC(=O)N4CCN(c5ccc(C(=O)Nc6n[nH]c7ccc(Cc8cc(F)cc(F)c8)cc67)c(NC6CCOCC6)c5)CC4)c3C2=O)C(=O)N1` (centres unmarked) [CPD-031, N-(5-(3,5-Difluorobenzyl)-1H-indazol-3-yl)-4-(4-(1-((2-(2,6-dioxopiperidin-3-yl)-1,3-dioxoisoindolin-4-yl)amino)-3,6,9,12-tetraoxapentadecan-15-oyl)piperazin-1-yl)-2-((tetrahydro-2H-pyran-4-yl)amino)benzamide] gave an IC50 of 68.5 nM. With `O=C1CCC(N2C(=O)c3cccc(NCCOCCOCCC(=O)N4CCN(c5ccc(C(=O)Nc6n[nH]c7ccc(Cc8cc(F)cc(F)c8)cc67)c(NC6CCOCC6)c5)CC4)c3C2=O)C(=O)N1` (centres unmarked) [CPD-032, N-(5-(3,5-Difluorobenzyl)-1H-indazol-3-yl)-4-(4-(3-(2-(2-((2-(2,6-dioxopiperidin-3-yl)-1,3-dioxoisoindolin-4-yl)amino)ethoxy)ethoxy)propanoyl)piperazin-1-yl)-2-((tetrahydro-2H-pyran-4-yl)amino)benzamide] the IC50 was 5.4 nM. `Cc1ncsc1-c1ccc(CNC(=O)[C@@H]2C[C@@H](O)CN2C(=O)[C@@H](NC(=O)CCCCCCC(=O)N2CCN(c3ccc(C(=O)Nc4n[nH]c5ccc(Cc6cc(F)cc(F)c6)cc45)c(NC4CCOCC4)c3)CC2)C(C)(C)C)cc1` [CPD-033, (2S,4R)-1-((S)-2-(8-(4-(4-((5-(3,5-difluorobenzyl)-1H-indazol-3-yl)carbamoyl)-3-((tetrahydro-2H-pyran-4-yl)amino)phenyl)piperazin-1-yl)-8-oxooctanamido)-3,3-dimethylbutanoyl)-4-hydroxy-N-(4-(4-methylthiazol-5-yl)benzyl)pyrrolidine-2-carboxamide] showed an IC50 of 100 nM. Compound `Cc1ncsc1-c1ccc(CNC(=O)[C@@H]2C[C@@H](O)CN2C(=O)[C@@H](NC(=O)CCCCCCCCC(=O)N2CCN(c3ccc(C(=O)Nc4n[nH]c5ccc(Cc6cc(F)cc(F)c6)cc45)c(NC4CCOCC4)c3)CC2)C(C)(C)C)cc1` [CPD-034, (2S,4R)-1-((S)-2-(10-(4-(4-((5-(3,5-Difluorobenzyl)-1H-indazol-3-yl)carbamoyl)-3-((tetrahydro-2H-pyran-4-yl)amino)phenyl)piperazin-1-yl)-10-oxodecanamido)-3,3-dimethylbutanoyl)-4-hydroxy-N-(4-(4-methylthiazol-5-yl)benzyl)pyrrolidine-2-carboxamide] has an IC50 of 300 nM. `Cc1ncsc1-c1ccc(CNC(=O)[C@@H]2C[C@@H](O)CN2C(=O)[C@@H](NC(=O)CCCCCCCCCC(=O)N2CCN(c3ccc(C(=O)Nc4n[nH]c5ccc(Cc6cc(F)cc(F)c6)cc45)c(NC4CCOCC4)c3)CC2)C(C)(C)C)cc1` [CPD-035, (2S,4R)-1-((S)-2-(11-(4-(4-((5-(3,5-Difluorobenzyl)-1H-indazol-3-yl)carbamoyl)-3-((tetrahydro-2H-pyran-4-yl)amino)phenyl)piperazin-1-yl)-11-oxoundecanamido)-3,3-dimethylbutanoyl)-4-hydroxy-N-(4-(4-methylthiazol-5-yl)benzyl)pyrrolidine-2-carboxamide] showed an IC50 of 300 nM. `Cc1ncsc1-c1ccc(CNC(=O)[C@@H]2C[C@@H](O)CN2C(=O)[C@@H](NC(=O)CCCC(=O)N2CCN(c3ccc(C(=O)Nc4n[nH]c5ccc(Cc6cc(F)cc(F)c6)cc45)c(NC4CCOCC4)c3)CC2)C(C)(C)C)cc1` [CPD-036, (2S,4R)-1-((S)-2-(5-(4-(4-((5-(3,5-Difluorobenzyl)-1H-indazol-3-yl)carbamoyl)-3-((tetrahydro-2H-pyran-4-yl)amino)phenyl)piperazin-1-yl)-5-oxopentanamido)-3,3-dimethylbutanoyl)-4-hydroxy-N-(4-(4-methylthiazol-5-yl)benzyl)pyrrolidine-2-carboxamide] was tested, and the IC50 was 300 nM. With `Cc1ncsc1-c1ccc(CNC(=O)[C@@H]2C[C@@H](O)CN2C(=O)[C@@H](NC(=O)CCCCCCCC(=O)N2CCN(c3ccc(C(=O)Nc4n[nH]c5ccc(Cc6cc(F)cc(F)c6)cc45)c(NC4CCOCC4)c3)CC2)C(C)(C)C)cc1` [CPD-037, (2S,4R)-1-((S)-2-(9-(4-(4-((5-(3,5-Difluorobenzyl)-1H-indazol-3-yl)carbamoyl)-3-((tetrahydro-2H-pyran-4-yl)amino)phenyl)piperazin-1-yl)-9-oxononanamido)-3,3-dimethylbutanoyl)-4-hydroxy-N-(4-(4-methylthiazol-5-yl)benzyl)pyrrolidine-2-carboxamide] the IC50 was 150 nM.
